Measurements published in US6509163B1, “Methods of screening modulators of mammalian P2X7 purinergic receptors” (Glaxo Group Limited, priority 1997, dated 2003).
Where two headings read alike, the source gives them in different places. Each block holds one molecule with its values, some of them ahead of it.

Key:
Assay type in all cases: cell-based
[1] = target: T1, P2X7 receptor (Rattus norvegicus, UniProt Q64663); assay: Whole-cell recordings of agonist-evoked currents in HEK293 cells transfected with rat P2X7 cDNA (Example 2); conditions: inward currents, brief application (0.5 to 2 s)
T1 construct: yielding a construct that encoded the entire P2X7 protein; expressed in transfected cells
T1 sequence (Q64663 1-595): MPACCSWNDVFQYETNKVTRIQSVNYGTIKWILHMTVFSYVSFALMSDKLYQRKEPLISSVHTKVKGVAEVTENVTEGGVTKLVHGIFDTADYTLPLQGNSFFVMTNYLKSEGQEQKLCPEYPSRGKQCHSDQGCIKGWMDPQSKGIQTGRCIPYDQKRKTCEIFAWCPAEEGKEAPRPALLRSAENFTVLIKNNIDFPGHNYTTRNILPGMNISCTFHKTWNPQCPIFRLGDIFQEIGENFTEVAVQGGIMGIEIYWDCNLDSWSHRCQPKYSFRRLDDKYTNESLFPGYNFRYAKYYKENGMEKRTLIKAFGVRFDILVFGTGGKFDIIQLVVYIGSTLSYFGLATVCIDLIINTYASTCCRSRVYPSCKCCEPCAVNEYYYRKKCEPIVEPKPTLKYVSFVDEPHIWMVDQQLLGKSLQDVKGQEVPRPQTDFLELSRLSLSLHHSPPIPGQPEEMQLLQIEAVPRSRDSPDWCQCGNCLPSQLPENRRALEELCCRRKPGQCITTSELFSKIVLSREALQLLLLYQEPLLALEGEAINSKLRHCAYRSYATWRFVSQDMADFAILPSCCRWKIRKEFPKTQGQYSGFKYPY

[2] = target: T1, P2X7 receptor; assay: as above; conditions: for EC50: read-out: EC50 (half-maximal concentration) for current; for agonist effect (evoking inward current): concentration 300 to 1000 μM
Procedure: (§1) Whole-cell recordings were obtained at room temperature from HEK293 cells transiently or stably transfected with P2X7 cDNA, from HEK293 cells transiently transfected with P2X7ΔC cDNA, and from J774A.1 cells (American Type Culture Collection, Rockville, Md.). Agonist were applied for periods of 1 to 3 s by a fast-flow U-tube delivery system (Fenwick et al, J. Physiol. (London) 331:577 (1982)). The internal pipette solution was 140 mM cesium-aspartate or potassium-aspartate, 20 mM NaCl, 10 mM EGTA, and 5 mM Hepes: normal external solution was 145 mM NaCl, 2 mM KCl, 2 mM CaCl2, 1 mM MgCl2, 10 mM Hepes, and 12 mM glucose. Low divalent external solution was nominally magnesium-free with 0.3 mM CaCl2. For cells expressing P2X7 receptors and J774 cells, concentration-response curves were constructed in low divalent solution by recording currents in response to 1-s applications of agonist at 8-min intervals with normal external solution present for 6 min before each application. This protocol was necessary to prevent the development of sustained inward currents. Lipofectin was used for transfection (Buell et al, EMBO J. 15:55 (1996)).
Reversal potentals (Erev) were obtained by application of ATP (300 μM) or BzATP (30 μM) while the membrane was held at various potentals or by application of voltage ramps from −120 to 30 or 50 mV. Permeability ratios from (Erev) were calculated by first computing α (=Pna/PK, where P is permeability) for internal (i) and external (o) concentrations [Na]i=20 mM, [Na]o=145 mM, [Ko]=0 mM, and [K]i=140 mM from α={[145/exp(Erev)F/RT −20]}/140 (where F is the Faraday, R is the gas constant, and T is the absolute temperature). Other PK/PNa values, when [X]o=145 mM, [Na]i=20 mM, [K]i=140 mM, and [Na]o=[K]o=[X]i=0 mM, were computed from PK/PNa={[exp (ErevF/RT) (20=140α)}/145. In order of size (FIG. 3C), X was cesium, methylamine, tris(hydroxymethyl)-aminomethane, tetraethylammonium, and N-methyl-D-glucamine. The internal solution also contained 10 mM EGTA and 5 mM Hepes. External solutions also contained 10 mM glucose and normal or low concentrations of divalent cations; pH was maintained at 7.3 with HCl, histidine, or Hepes as required, and the osmolarity of all solutions was 295 to 315.

[3] = target: T2, hP2X7 receptor (Homo sapiens, UniProt Q99572); assay: Whole-cell recordings in HEK293 cells transiently transfected with hP2X7 receptors (Example 3)
T2 construct: a clone containing the complete open reading frame of the hP2X7 receptor was constructed; expressed in transfected cells; host or cells: HEK293 (transient), pcDNA3
T2 sequence (Q99572 1-595): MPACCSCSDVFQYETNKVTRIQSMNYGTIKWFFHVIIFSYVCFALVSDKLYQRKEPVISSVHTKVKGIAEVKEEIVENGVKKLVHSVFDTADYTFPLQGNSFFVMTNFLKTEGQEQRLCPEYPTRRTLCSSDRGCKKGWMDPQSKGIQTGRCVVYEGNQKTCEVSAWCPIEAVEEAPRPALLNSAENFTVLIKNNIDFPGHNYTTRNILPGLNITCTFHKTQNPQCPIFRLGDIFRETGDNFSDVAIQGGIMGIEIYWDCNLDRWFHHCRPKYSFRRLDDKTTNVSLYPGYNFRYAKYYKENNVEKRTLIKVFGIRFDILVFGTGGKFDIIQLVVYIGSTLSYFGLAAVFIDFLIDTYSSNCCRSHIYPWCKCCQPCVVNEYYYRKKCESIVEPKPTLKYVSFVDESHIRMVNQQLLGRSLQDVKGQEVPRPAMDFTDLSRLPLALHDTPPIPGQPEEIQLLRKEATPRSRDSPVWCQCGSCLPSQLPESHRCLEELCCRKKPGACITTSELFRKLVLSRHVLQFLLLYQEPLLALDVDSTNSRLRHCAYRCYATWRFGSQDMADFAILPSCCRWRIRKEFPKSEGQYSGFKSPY
Procedure: (§2) Cell culture. HEK293 cells were transiently transfected with cDNA (1 μg/ml) and lipofectin dissolved in Optimem (GIBCO) placed into petri dishes containing four coverslips onto which cells were plated at a density of about 8×10^4/coverslip. Cells were washed 5 h later and normal DMEM applied. Electrophysiological studies or dye uptake measurements were carried out 18-49 h later. For each set of transfections, parallel experiments were performed on HEK cells transfected with cDNA encoding both rP2X7 and hP2X7 receptors.
(§3) Electrophysiological experiments. Whole-cell recordings were made using the EPC9 patch-clamp amplifier and Pulse acquisition programs (HEKA, Lambrecht, Germany). Patch pipettes (5-7 MΩ) contained (mM) CsCl or NaCl 154, EGTA 10, HEPES 5. The normal extracellular solution contained (mM) NaCg 147, KCl2, CaCl2 2, MgCl2 1, HEPES 10 and glucose 12, and the “low divalent” solution had no magnesium and 0.3 mM CaCl2. Agonists were delivered by U-tube delivery system; antagonists, when applied, were present in both superfusion and U-tube. Experiments were carried out at room temperature.

[4] = tested on: J774 cells; assay: Whole-cell recordings of BzATP-evoked currents in J774 macrophage cells; conditions: three J774 cells; read-out: half-maximal inhibition of currents evoked by 30 μM BzATP
Procedure: as §1

[5] = target: T3, rP2X7 receptor (Rattus norvegicus, UniProt Q64663); assay: Whole-cell recordings in HEK293 cells transiently transfected with rP2X7 receptors (Example 3)
T3 construct: yielding a construct that encoded the entire P2X7 protein; expressed in transfected cells
T3 sequence (Q64663 1-595): T1 sequence (Q64663 1-595)
Procedure: as §2, §3

[6] = vs 30 μM BzATP, n=3, read-out: concentration causing half-maximal inhibition of currents
[7] = percentage of value in 1 mM magnesium

agonist order of potency [1]: BzATP>>ATP>2MeSATP>ATP-γ-S>>ADP
SMILES: CSc1nc(N)c2ncn([C@@H]3O[C@H](COP(=O)(O)OP(=O)(O)OP(=O)(O)O)[C@@H](O)[C@H]3O)c2n1 [2MeSATP]

agonist order of potency [1]: BzATP>>ATP>2MeSATP>ATP-γ-S>>ADP
SMILES: Nc1ncnc2c1ncn2[C@@H]1O[C@H](COP(=O)(O)OP(=O)(O)O)[C@@H](O)[C@H]1O [ADP]

agonist order of potency [1]: BzATP>>ATP>2MeSATP>ATP-γ-S>>ADP
SMILES: Nc1ncnc2c1ncn2[C@@H]1O[C@H](COP(=O)(O)OP(=O)(O)OP(O)(O)=S)[C@@H](O)[C@H]1O [ATP-γ-S]

agonist order of potency [1]: BzATP>>ATP>2MeSATP>ATP-γ-S>>ADP | EC50 ([2]; normal solution (2 mM CaCl2, 1 mM MgCl2), n=4): 115 ± 9 µM | EC50 ([2]; zero magnesium, n=7): 85 ± 8 µM | EC50 at hP2X7 relative to rP2X7 receptor (fold greater) [3]: about 10 fold
SMILES: Nc1ncnc2c1ncn2[C@@H]1O[C@H](COP(=O)(O)OP(=O)(O)OP(=O)(O)O)[C@@H](O)[C@H]1O [ATP]

block of currents evoked by 30 μM BzATP ([2]; 100 μM, cells preincubated for 1 to 2 hours, n=5): irreversibly blocked currents
SMILES: Nc1ncnc2c1ncn2[C@@H](C=O)O[C@@H](C=O)COP(=O)(O)OP(=O)(O)OP(=O)(O)O [Oxidized ATP]

IC50 ([2]; four HEK cells, read-out: half-maximal inhibition of currents evoked by 30 μM BzATP): 45 ± 8 µM | IC50 [5, 6]: 51 ± 4 µM
SMILES: Cc1nc(N=Nc2ccc(S(=O)(=O)O)cc2S(=O)(=O)O)c(COP(=O)(O)O)c(C=O)c1O [PPADS, pyridoxal 5-phosphate-6-azophenyl 2′4′-disulfonic acid]
IC50 [4]: 60 ± 9 µM

agonist effect (evoking inward current) [2]: ineffective
SMILES: O=c1ccn([C@@H]2O[C@H](COP(=O)(O)OP(=O)(O)OP(=O)(O)O)[C@@H](O)[C@H]2O)c(=O)[nH]1 [UTP]

agonist effect (evoking inward current) [2]: ineffective
SMILES: Nc1ncnc2c1ncn2[C@@H]1O[C@H](CO)[C@@H](O)[C@H]1O [adenosine]

blocking current evoked by 30 μM BzATP ([2]; 100 μM, n=6): ineffective
SMILES: NC(N)=NC(=O)c1nc(Cl)c(N2CCCCCC2)nc1N [hexamethylene amiloride]

IC50 ([5]; currents evoked by 30 μM BzATP, read-out: concentration of magnesium causing half-maximal inhibition of the current): 780 µM | increase of currents on removal of external magnesium [5, 7]: 420±84% | IC50 ([3]; currents evoked by 300 μM BzATP, read-out: concentration of magnesium causing half-maximal inhibition of the current): 212 µM | increase of currents on removal of external magnesium [3, 7]: 670±80%
SMILES: [Mg+2] [magnesium]

SMILES: Cc1ccc(C(=O)Nc2ccc(S(=O)(=O)O)c3cc(S(=O)(=O)O)cc(S(=O)(=O)O)c23)cc1NC(=O)c1cccc(NC(=O)Nc2cccc(C(=O)Nc3cc(C(=O)Nc4ccc(S(=O)(=O)O)c5cc(S(=O)(=O)O)cc(S(=O)(=O)O)c45)ccc3C)c2)c1 [suramin]
inhibition at 300 µM ([2]; read-out: inhibition of currents evoked by 30 μM BzATP): 15 to 38% | IC50 [5, 6]: 78 ± 3 µM

agonist effect (evoking inward current) [2]: ineffective
SMILES: Nc1ncnc2c1ncn2[C@@H]1O[C@H](COP(=O)(O)CP(=O)(O)OP(=O)(O)O)[C@@H](O)[C@H]1O [αβ-methylene ATP]

agonist effect (evoking inward current) [2]: ineffective
SMILES: Nc1ncnc2c1ncn2[C@@H]1O[C@H](COP(=O)(O)OP(=O)(O)CP(=O)(O)O)[C@@H](O)[C@H]1O [βγ-methylene ATP]
